Test results reported in patent US20230058160A1, “METABOLITE-BASED POLYMERS, MICROPARTICLES, AND NANOPARTICLES FOR IMMUNOTHERAPY AND METHODS OF TREATING A DISEASE OR DISORDER” (priority 2020, published 2023).
Entries after “also recorded” stand apart in the source; their conditions may differ. Blank lines part the entries; values can stand above or below the compound they belong to.

Legend:
[1] = tested on: bone marrow derived dendritic cells; test: Dendritic cell activation by flow cytometry (MHCII, CD86, CD11c); type: cell-based, C57BL/6j mice; conditions: for DC activation (CD86+ and MHCII+CD86+ populations in CD11c+ DCs), inhibitor alone: 200 nM PFK15 or 30 nM CB-839; for concentration that prevented the activation of DCs: 24 hours incubation, MHCII, CD86, CD11c staining
Method: In order to test the effect of PFKFB3 inhibition on DC and T cell activation, PFK15 was employed. Specifically, DCs were isolated from bone marrow of C57BL/6j mice using GM-CSF, and incubated with different concentrations of PFK15 (50, 100, 200, 400, 800, 1600 nM) for 24 hours. These cells were then stained for MHCII, CD86 and CD 11c to determine activation profile. It was observed that at 200 nM and higher concentrations of PFK15 prevented the activation of DCs (FIG. 3—200 nM shown as example).
In order to test the effect of glutaminase inhibition on DC activation, bone marrow DCs were isolated from C57BL/6j mice and cultured with different concentrations of CB-839, a clinically validated molecule (0, 15, 30, 60, 120 nM) for 24 hours. These cells were then stained for MHCII, CD86, and CD11c to determine activation profile. It was observed that at 30 nM and higher concentrations of CB-839 prevented the activation of DCs (FIG. 11—30 nM is shown as a representative example).
Specifically, DCs were cultured in the presence of CB-839 with or without PEGS (0.1 mg/mL) and with or without LPS (0.1 μg/mL) for 24 hours. Cells were then stained for MHC-II, CD86 and CD11c and analyzed using flow cytometry.

DCs = test: Seahorse ECAR/OCR of dendritic cells (glycolysis stress test); type: cell-based, C57BL/6j mice
Method: In order to test if F16BP particles can rescue DCs from exhaustion when cultured in the presence of PFK15, ECAR using Seahorse assays was utilized. Specifically, DCs were cultured with either PFK 15 (200 nM), F16BP (0.1 mg/mL) or PFK15+F16BP with or without LPS and ECAR measurements were obtained.
Specifically, immature DCs were obtained from C57BL/6j mice and cultured with PEGS (0.1 mg/mL) with or without CB-839 (30 nM or 240 nM) for 16 hours. After 16 hours of incubation, DCs were incubated in glucose free medium and ECAR and OCR values were recorded using Seahorse extracellular flux (XF) analyzer (glucose addition at 20 min).

YUMM1.1 cells = test: MTT cell viability assay, YUMM1.1 melanoma cells; type: cell-based, mouse
Method: (§1) In order to determine if PFK15 prevents melanoma cell growth in vitro, two different mouse melanoma cells were utilized, namely YUMM1.1 (BrafV600E/wt, Pten−/− Cdkn2−/−MHClHi) and B16F10. Specifically, YUMM1.1 and B16F10 cells were cultured with different concentrations of […], and the percentage cell viability was determined using MTT assay.
as §1, with “if […]” for “if PFK15”, “YUMM1.1” for “YUMM1.1 (BrafV600E/wt, Pten−/− Cdkn2−/−MHClHi)”

B16F10 cells = test: MTT cell viability assay, B16F10 melanoma cells; type: cell-based, mouse
Method: as §1
as §1, with “if […]” for “if PFK15”, “YUMM1.1” for “YUMM1.1 (BrafV600E/wt, Pten−/− Cdkn2−/−MHClHi)”

YUMM1.1 tumors = test: YUMM1.1 tumor model in mice; type: in vivo
Method: In order to determine if the injection of F16BP particles in vivo can lead to longer survival in mice, study design shown in FIG. 7A and FIG. 7B was followed.
In order to test the efficacy of F16BP particles-based vaccines to reduce tumor growth in mice, C57BL/6j mice were utilized. Specifically, tumors were induced by injecting 0.75×10^6 cells in the back of the mice. From day 18 onwards, mice were injected with the F16BP based vaccines injected subcutaneously (0.5 mg/mouse) every 3 days (total 3 treatments—days 21, 24, 27) with PFK15 (5 mg/kg) injected every other day intraperitoneally (FIG. 7A—same study design as survival but mice euthanized day 28 for T cell analyses). Controls included PFK15 injections every alternate day, or no treatment. Mice were then sacrificed on day 26 and the tumors, draining lymph nodes, and non-draining contralateral lymph nodes were harvested.

IC50 (YUMM1.1 cells; Mus musculus, MTT assay, percentage cell viability, read-out: IC50 to prevent proliferation of YUMM1.1 cells): 0.00375 µM
SMILES: O=C(Cc1cccc(OC(F)(F)F)c1)Nc1ccc(CCCCc2nnc(NC(=O)Cc3ccccn3)s2)nn1 [CB-839]
DC activation (CD86+ and MHCII+CD86+ populations in CD11c+ DCs), inhibitor alone [1]: significantly reduces activation in DCs
concentration that prevented the activation of DCs [1]: ≥ 30 nM
glycolysis and mitochondrial respiration in DCs (ECAR and OCR), CB-839 alone (DCs; 30 nM CB-839, 16 hours): block glycolysis and mitochondrial respiration; also recorded: do not upregulate glycolysis or mitochondrial respiration

SMILES: O=C(/C=C/c1ccc2ccccc2n1)c1ccncc1 [PFK15]
DC activation (CD86+ and MHCII+CD86+ populations in CD11c+ DCs), inhibitor alone [1]: significantly reduces activation in DCs
DC activation (CD86+ and MHCII+CD86+ populations in CD11c+ DCs), inhibitor alone ([1]; listed as PFK-15): downregulated
concentration that prevented the activation of DCs [1]: ≥ 200 nM
ECAR of DCs, PFK15 without LPS (DCs; PFK15 200 nM without LPS): even lower than the no treatment control
killing of YUMM1.1 cells in vitro (YUMM1.1 cells): able to kill
IC50 of YUMM1.1 melanoma cells using PFK-15 (FIG. 6B) (YUMM1.1 cells; MTT assay, n=6): 5 µM
killing of B16F10 cells in vitro (B16F10 cells): able to kill
tumor burden / tumor growth (YUMM1.1 tumors; F16BP vaccine 0.5 mg/mouse s.c., PFK15 5 mg/kg i.p., vs PFK15 alone and no treatment): significant improvements in tumor burden
improvement of survival of mice (YUMM1.1 tumors; PFK15 5 mg/kg intraperitoneally every other day): 15 days
